Data on 6 molecules can be found in paper PMC12346480, “The Pharmacokinetic and Pharmacodynamic Relationship of Clinically Used Antiseizure Medications in the Maximal Electroshock Seizure Model in Rodents” (International Journal of Molecular Sciences, 2025).

Read-outs that look alike come from different tables or passages of the source.

The test system of data set [1] is MES-induced seizures. Description: animal or person. Type of data set: in vivo. The protocol:
(§1) Animals were group-housed (2–4 mice or 3–4 rats per cage) in plastic cages and maintained under controlled temperature (18–25 °C), humidity, ventilation, and lighting (12 h light/dark cycle). They had free access to water and Certified Rodent Chow (Teklad Rodent Chow). Upon arrival, the animals were examined to ensure good health status and were acclimated to the facility for at least 5 days before being subjected to the MES protocol. All experiments were conducted in accordance with guidelines set by the Canadian Council on Animal Care and approved by the Xenon Animal Care Committee.
(§2) Drugs were administered by the intraperitoneal route (IP; dissolved in sterile saline) or oral route (PO; dissolved in 0.5% methylcellulose + 0.2% Tween 80 in DI water) in a volume of 10 mL/kg. Control animals received the appropriate vehicle. The doses and pre-treatment times for each drug, detailed in Table 2, were determined based on in-house data or, in some cases, from the publicly available PANACHE database.
(§3) The MES assay is widely used in the search for anticonvulsant substances. This animal model for generalized tonic–clonic seizures assesses a compound’s ability to prevent seizure spread. […] Before the electroshock stimulation, the eyes were anesthetized with a topical application of 0.5% proparacaine hydrochloride (one drop per eye). Animals were then restrained; the corneal electrodes were applied, and the shock was administered. An MES-induced seizure was characterized by an initial generalized tonic seizure with a hindlimb tonic extensor component.
(§4) The protocols for administering PO or IP doses of the vehicle or drug are described in […]. These doses were administered 0.5–2 h before the application of electric stimulation. An animal was considered protected from MES-induced seizures if the hindlimb tonic extensor component of the seizure was abolished, and it was scored as “0”. […] Seizure induction and scoring were performed by an experimenter who was blinded to treatment conditions.
(§5) After being subjected to the stimulation protocol, rodents were anesthetized by isoflurane inhalation until they reached a surgical plane of anesthesia. Approximately 0.5 mL of blood was collected via cardiac puncture and transferred to EDTA-coated tubes on ice. Animals were then euthanized by cervical dislocation, and their brains were removed, weighed, and immediately frozen on dry ice. At the end of sample collection, blood was centrifuged at 4000 rpm for 10 min at 4 °C, and the plasma was separated. All samples were stored at −80 °C until the time of bioanalysis.
(§6) Plasma samples were extracted for analysis using a protein precipitation method with acetonitrile. A total of 50 µL of diluted plasma samples was mixed with 50 µL of an internal standard (IS) solution in a 1:1 mixture of acetonitrile and water. A total of 200 µL of acetonitrile was then added to the mixture, which was vortexed for 30 s. The samples were centrifuged at 13,000 rpm for 20 min, decanted into a 96-well plate, and further centrifuged at 4000 rpm for 20 min. The samples were then analyzed using ultra-high-performance electrospray ionization tandem mass spectrometry (UHPLC-ESI-MS/MS).
(§7) Brains were homogenized in a 1:1 mixture of acetonitrile and water (2 mL per mouse brain) using the T18 ULTRA-TURRAX (IKA, Staufen im Breisgau, Germany) homogenizer for about 1 min. The homogenate was centrifuged at 13,000 rpm for 20 min, and 50 µL of the supernatant was treated in the same way as the plasma samples for analysis.
(§8) At 1.5 min, the mobile phase composition was switched back to 50% B at 1.6 min and then held at 50% B until 2.5 min. The flow rate used throughout the experiment was 0.4 mL/min. […] Each compound was matched with a proprietary co-eluting internal standard. The UHPLC-ESI MS/MS system was controlled, and samples were quantified using Analyst 1.6.

The test system of data set [2] is MES-induced seizures. In words: Alternating current maximal electroshock seizure assay (AC-MES) in rats with plasma and brain exposure. The format is in vivo, Sprague-Dawley rats. The settings on record: for ED50: single PO dose, pre-treatment 0.5-2 h per Table 2, read-out: ED50 (median effective dose). The protocol: as §1, §2, §3, §4, §5, §6, §7, §8
The nature of data set [3]: in vivo. The settings on record: CF-1, mouse. The protocol:
as §5, §6, §7, §8

Data set [4] in a line: in vivo. The conditions noted are these: Sprague-Dawley, rat. The protocol:
as §5, §6, §7, §8

Data set [5] in a line: Plasma protein binding, rat. The settings on record: Xenon in-house data. From the text:
(§9) PPB data is available in Supplemental Table S1.
(§10) Supplemental Table S1. Summary of effective plasma concentrations, plasma protein binding (PPB), and unbound plasma concentrations (Cp,u) for the ASMs tested in mice, rats and humans.
(§11) *For mouse and rat, plasma EC50 from the MES assay at one time point after a single dose is shown. For human, literature-reported therapeutic plasma concentrations are shown. […]
(§12) mouse, for which published data were used. For human, published data is shown.
(§13) *** Cp,u values for rodents have been calculated based on MES EC50. Cp,u values for humans represent the lower and upper bounds of reported therapeutic plasma concentrations, adjusted for PPB, as reported in clinical pharmacokinetic

In data set [6] the test system is MES-induced seizures. Description: animal or person. Type of data set: in vivo. The conditions noted are these: mouse MES; single dose, route and pre-treatment time per Table 2 (PO or IP, 0.25-2 h); read-out: ED50 (median effective dose).
For data set [7] the following is noted: mouse plasma, cited from earlier work.
The conditions of data set [8]: human plasma; published data ref 36-47; cited from earlier work.
For data set [9] the following is noted: human, cited from earlier work; for Effective plasma concentration: literature-reported therapeutic plasma concentrations ref 36-47; for Cp,u (unbound therapeutic plasma concentration): lower and upper bounds of therapeutic plasma concentrations adjusted for PPB ref 36-47.
Data set [10] in a line: Plasma protein binding, mouse. The settings on record: Xenon in-house data.
Text: as §9, §10, §11, §12, §13

Details of data set [11]: method as in earlier work. The conditions noted are these: rat plasma; published data ref 34; cited from earlier work.
Where [12] appears, read: mouse MES, brain concentration for 50% probability of seizure protection, read-out: EC50 Brain.
Setting [13] is: mouse MES, plasma concentration for 50% probability of seizure protection, one time point after single dose, read-out: EC50 Plasma.
The mark [14] stands for this setting: mouse, calculated based on MES EC50 and PPB, read-out: Cp,u EC50 (unbound plasma concentration).
[15] abbreviates: Rattus norvegicus, read-out: Cp,u EC50 (unbound plasma concentration).
[16] abbreviates: Rattus norvegicus, read-out: EC50 Brain.
[17] abbreviates: Rattus norvegicus, read-out: EC50 Plasma.
[18] abbreviates: rat MES, brain concentration for 50% probability of seizure protection, read-out: EC50 Brain.
[19] abbreviates: rat MES, plasma concentration for 50% probability of seizure protection, one time point after single dose, read-out: EC50 Plasma.
The mark [20] stands for this setting: rat, calculated based on MES EC50 and PPB, read-out: Cp,u EC50 (unbound plasma concentration).

With `NC(=O)O[C@@H](Cn1ncnn1)c1ccccc1Cl` [CNB, cenobamate], the EC50 with MES-induced seizures [1] (setting [12]) is 24.9 µM; in the data set with MES-induced seizures [1] (setting [13]), 66 µM; in the data set with MES-induced seizures [1] (setting [14]) it was 40.1 µM; with MES-induced seizures [2] (setting [15]), 8.93 µM; in the data set with MES-induced seizures [2] (setting [16]), 10.7 µM; in the data set with MES-induced seizures [2] (setting [17]), 15.9 µM. Moreover, the “Doses giving significant reduction of MES-induced seizures (fraction seizing)” value in the data set with MES-induced seizures [2] (rat MES, vs vehicle, Kruskal-Wallis/Dunn) turned out to be 18 mg/kg. Besides, the values for the Kp in “in vivo [3]” (in vivo) and in “in vivo [4]” (in vivo) were 0.38 and 0.67, respectively. Also, the “PPB (% bound)” value in data set [5] was 46.1 % bound; in [7] (published data ref 35) it was 43.2 % bound; in data set [8], 60.0 % bound. Also, in the data set on MES-induced seizures [6], the ED50 was determined as 7.05 mg/kg. Besides, the Effective plasma concentration in data set [9] is 89.3 to 170 µM. In addition, the “Cp,u (unbound therapeutic plasma concentration)” value in [9] was 35.7 to 68.0 µM.
`O=C1NC(=O)C(c2ccccc2)(c2ccccc2)N1` [PHT, phenytoin]: the EC50 with MES-induced seizures [1] (setting [12]) was 30.6 µM; in the data set on MES-induced seizures [1] (setting [13]) it was 27.6 µM; in the data set on MES-induced seizures [1] (setting [14]) it was 5.37 µM; with MES-induced seizures [2] (setting [18]), 2.66 µM; with MES-induced seizures [2] (setting [19]) it was 3.2 µM; in the data set on MES-induced seizures [2] (setting [20]) it was 0.89 µM. Further, the ED50 in the data set on MES-induced seizures [2] (rat MES) was 16.9 mg/kg; in the data set with MES-induced seizures [6], 9.81 mg/kg. Also, the Kp came to 1.11 in “in vivo [3]” (brain and plasma, oral); 0.83 in “in vivo [4]” (brain and plasma, oral). Also, the “PPB (% bound)” value in [10] is 80.3 % bound; in data set [5], 80.6 % bound; in [8], 90.0 % bound. Besides, in data set [9], the Effective plasma concentration is 40 to 79 µM. The “Cp,u (unbound therapeutic plasma concentration)” value in data set [9] was 4.00 to 7.90 µM.
Turning to `CCCC(CCC)C(=O)O` [VPA, valproic acid], the EC50 in the data set with MES-induced seizures [1] (Mus musculus, read-out: EC50 Brain) is 630 µM; with MES-induced seizures [1] (setting [13]) it was 1670 µM; with MES-induced seizures [1] (setting [14]) it was 1640 µM; with MES-induced seizures [2] (setting [15]), 647 µM; in the data set with MES-induced seizures [2] (setting [16]), 307 µM; in the data set with MES-induced seizures [2] (setting [17]), 1310 µM. Also, the Kp in the data set “in vivo [3]” (brain and plasma, oral) was 0.38; in the data set “in vivo [4]” (brain and plasma, oral), 0.24. Besides, the ED50 with MES-induced seizures [6] was 196 mg/kg. Moreover, the figures for the “PPB (% bound)” value in [11], in [7] (published data ref 34) and in [8] were 66.5 % bound, 12.0 % bound and 90.0 % bound, respectively. Besides, the Effective plasma concentration in data set [9] was 346 to 693 µM. Besides, the “Cp,u (unbound therapeutic plasma concentration)” value in data set [9] was 34.6 to 69.3 µM.
`CCOC(=O)Nc1ccc(NCc2ccc(F)cc2)cc1N` [RTG, retigabine]: the EC50 was 2.26 µM with MES-induced seizures [1] (setting [13]), 0.52 µM with MES-induced seizures [1] (setting [14]), 0.2 µM with MES-induced seizures [2] (setting [15]) and 1.46 µM with MES-induced seizures [2] (setting [17]). Also, the “PPB (% bound)” value in [10] is recorded as 86.2 % bound; in [5] it was 85.1 % bound; in data set [8], 80.0 % bound. For the same molecule, the Effective plasma concentration in data set [9] is 1.98 to 3.99 µM.
On to `COC[C@@H](NC(C)=O)C(=O)NCc1ccccc1` [LSM, lacosamide], for which the EC50 is 14.8 µM with MES-induced seizures [1] (setting [12]); 19.3 µM in the data set on MES-induced seizures [1] (setting [13]); 15.6 µM with MES-induced seizures [1] (setting [14]); 22.2 µM in the data set on MES-induced seizures [2] (setting [15]); 12.2 µM in the data set on MES-induced seizures [2] (setting [16]); 24.9 µM in the data set with MES-induced seizures [2] (setting [17]). The figures for the Kp in “in vivo [3]” (in vivo) and in “in vivo [4]” (in vivo) were 0.77 and 0.49, respectively. Further, the entries for the “PPB (% bound)” value in data set [10], in data set [5] and in data set [8] were 21.8 % bound, 22.9 % bound and 13.4 % bound, respectively. Also, the median effective dose (ED50) in the data set with MES-induced seizures [6] was determined as 15.2 mg/kg.
As for `NC(=O)N1c2ccccc2C=Cc2ccccc21` [CBZ, carbamazepine], the EC50 in the data set on MES-induced seizures [1] (setting [12]) was 32.5 µM; in the data set on MES-induced seizures [1] (setting [13]) it was 13.8 µM; in the data set on MES-induced seizures [1] (setting [14]), 7.04 µM; in the data set on MES-induced seizures [2] (setting [18]) it was 4.7 µM; with MES-induced seizures [2] (setting [19]), 4.55 µM; in the data set with MES-induced seizures [2] (setting [20]), 1.63 µM. Moreover, the ED50 in the data set on MES-induced seizures [2] (rat MES) was 4.39 mg/kg; in the data set on MES-induced seizures [6], 9.67 mg/kg. In addition, the Kp in “in vivo [3]” (brain and plasma, oral) came to 2.36; in “in vivo [4]” (brain and plasma, oral) it was 1.03. The “PPB (% bound)” value is reported as 52.4 % bound in data set [10], 63.9 % bound in data set [5] and 75.0 % bound in [8]. Moreover, in data set [9], the Effective plasma concentration was 17 to 51 µM. The “Cp,u (unbound therapeutic plasma concentration)” value in [9] was 4.25 to 12.8 µM.
